Legend:
Format in all cases: biochemical
Conditions in all cases: ATP 100 μM
JAK1 = JAK1 (Homo sapiens (Human), UniProt P23458); assay: Enzyme assay (Assay Example^a 1), JAK1
JAK2 = JAK2 (Homo sapiens (Human), UniProt O60674); assay: Enzyme assay (Assay Example^a 1), JAK2
JAK3 = JAK3 (Homo sapiens (Human), UniProt P52333); assay: Enzyme assay (Assay Example^a 1), JAK3
Tyk2 = Tyk2 (Homo sapiens (Human), UniProt P29597); assay: Enzyme assay (Assay Example^a 1), Tyk2
Tyk2, sequence (P29597 whole entry): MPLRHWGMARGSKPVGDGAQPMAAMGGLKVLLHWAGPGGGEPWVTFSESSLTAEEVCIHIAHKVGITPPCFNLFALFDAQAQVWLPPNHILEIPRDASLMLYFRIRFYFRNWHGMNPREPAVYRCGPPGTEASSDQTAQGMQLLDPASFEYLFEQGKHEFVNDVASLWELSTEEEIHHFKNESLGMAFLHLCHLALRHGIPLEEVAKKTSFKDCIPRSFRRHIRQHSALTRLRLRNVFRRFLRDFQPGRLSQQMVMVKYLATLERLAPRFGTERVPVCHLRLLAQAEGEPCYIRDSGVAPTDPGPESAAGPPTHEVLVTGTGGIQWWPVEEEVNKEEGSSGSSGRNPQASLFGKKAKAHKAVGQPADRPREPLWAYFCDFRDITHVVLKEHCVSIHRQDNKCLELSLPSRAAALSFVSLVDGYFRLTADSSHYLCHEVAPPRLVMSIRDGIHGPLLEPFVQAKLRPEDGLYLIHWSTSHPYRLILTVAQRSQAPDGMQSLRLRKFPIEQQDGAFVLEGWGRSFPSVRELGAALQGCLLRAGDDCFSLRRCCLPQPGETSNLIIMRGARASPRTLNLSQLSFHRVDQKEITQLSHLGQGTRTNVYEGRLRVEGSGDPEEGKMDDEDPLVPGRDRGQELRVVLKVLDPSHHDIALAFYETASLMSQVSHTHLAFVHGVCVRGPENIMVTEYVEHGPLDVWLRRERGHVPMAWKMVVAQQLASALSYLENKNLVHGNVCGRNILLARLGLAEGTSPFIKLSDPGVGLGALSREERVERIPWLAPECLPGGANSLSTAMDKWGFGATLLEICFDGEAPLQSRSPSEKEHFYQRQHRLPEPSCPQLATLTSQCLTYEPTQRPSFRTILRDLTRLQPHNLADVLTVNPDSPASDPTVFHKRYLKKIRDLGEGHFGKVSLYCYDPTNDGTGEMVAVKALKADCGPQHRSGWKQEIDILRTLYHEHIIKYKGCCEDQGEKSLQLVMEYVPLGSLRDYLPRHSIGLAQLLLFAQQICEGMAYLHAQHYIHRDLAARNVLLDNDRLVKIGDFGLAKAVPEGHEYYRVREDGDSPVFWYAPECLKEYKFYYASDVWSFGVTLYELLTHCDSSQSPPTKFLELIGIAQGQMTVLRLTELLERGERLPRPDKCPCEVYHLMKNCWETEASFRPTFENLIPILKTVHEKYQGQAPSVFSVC

JAK3, sequence (P52333 whole entry): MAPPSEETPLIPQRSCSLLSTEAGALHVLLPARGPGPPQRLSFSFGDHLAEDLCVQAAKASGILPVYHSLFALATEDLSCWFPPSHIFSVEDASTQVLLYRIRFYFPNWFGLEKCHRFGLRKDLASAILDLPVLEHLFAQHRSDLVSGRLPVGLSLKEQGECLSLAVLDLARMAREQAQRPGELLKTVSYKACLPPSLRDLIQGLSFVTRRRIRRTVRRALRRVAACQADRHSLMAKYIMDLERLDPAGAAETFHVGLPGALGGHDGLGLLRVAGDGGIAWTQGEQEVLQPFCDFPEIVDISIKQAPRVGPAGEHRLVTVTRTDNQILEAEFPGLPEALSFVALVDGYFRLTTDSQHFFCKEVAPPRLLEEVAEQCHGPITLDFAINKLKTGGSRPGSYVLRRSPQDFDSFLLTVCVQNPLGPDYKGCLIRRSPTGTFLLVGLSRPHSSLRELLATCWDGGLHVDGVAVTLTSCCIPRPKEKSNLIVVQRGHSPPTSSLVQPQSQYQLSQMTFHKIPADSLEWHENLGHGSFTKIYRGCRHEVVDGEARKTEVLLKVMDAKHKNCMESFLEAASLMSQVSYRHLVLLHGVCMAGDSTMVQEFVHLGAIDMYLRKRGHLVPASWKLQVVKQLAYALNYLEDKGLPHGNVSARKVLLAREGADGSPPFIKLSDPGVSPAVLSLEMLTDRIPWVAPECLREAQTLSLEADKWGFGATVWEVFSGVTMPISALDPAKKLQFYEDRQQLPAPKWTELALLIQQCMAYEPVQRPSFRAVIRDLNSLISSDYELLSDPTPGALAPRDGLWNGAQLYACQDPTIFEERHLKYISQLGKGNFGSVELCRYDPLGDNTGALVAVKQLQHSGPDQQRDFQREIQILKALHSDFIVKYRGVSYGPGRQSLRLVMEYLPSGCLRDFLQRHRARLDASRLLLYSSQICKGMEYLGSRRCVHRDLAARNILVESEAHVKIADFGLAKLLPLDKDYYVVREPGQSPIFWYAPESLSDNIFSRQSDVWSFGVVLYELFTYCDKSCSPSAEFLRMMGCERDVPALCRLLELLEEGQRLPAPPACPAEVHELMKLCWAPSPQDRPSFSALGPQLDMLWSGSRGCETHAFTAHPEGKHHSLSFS

SMILES	IC50 (JAK1) [µM]	IC50 (JAK2) [µM]	IC50 (JAK3) [µM]	IC50 (Tyk2) [µM]	IC50 (JAK1; Table^a 154) [µM]	IC50 (JAK2; Table^a 154) [µM]	IC50 (JAK3; Table^a 154) [µM]	IC50 (Tyk2; Table^a 154) [µM]
c1cc2c(ncn3nnc([C@H]4CC[C@@H](CNC5CC5)CC4)c23)[nH]1 [compound 406, N-{[cis-4-(7H-pyrrolo[3,2-e][1,2,3]triazolo[1,5-c]pyrimidin-1-yl)cyclohexyl]methyl}cyclopropanamine]	0.083	0.56	> 1	0.94	–	–	–	–
FC(F)(F)C1CCC(N2CCC(c3nnn4cnc5[nH]ccc5c34)CC2)CC1 (single isomer, unassigned) [56b]	–	–	–	–	0.035	0.6	> 1	> 1
CC(C#N)[C@H]1CC[C@H](c2nnn3cnc4[nH]ccc4c23)CC1 (stereo partly drawn) [439b, 2-[trans-4-(7H-Pyrrolo[3,2-e][1,2,3]triazolo[1,5-c]pyrimidin-1-yl)cyclohexyl]propanenitrile]	0.0031	0.0067	0.33	0.025	–	–	–	–
N#Cc1ccc(CN2CCC(c3nnn4cnc5[nH]ccc5c34)CC2)cc1C(F)(F)F [compound 244, 4-{[4-(7H-pyrrolo[3,2-e][1,2,3]triazolo[1,5-c]pyrimidin-1-yl)piperidin-1-yl]methyl}-2-(trifluoromethyl)benzonitrile]	0.0054	0.038	0.44	0.79	–	–	–	–
CC(C)(C)OC(=O)N1CC(CC#N)(NC[C@H]2CC[C@H](c3nnn4cnc5[nH]ccc5c34)CC2)C1 [compound 428, tert-Butyl 3-({[trans-4-(7H-pyrrolo[3,2-e][1,2,3]triazolo[1,5-c]pyrimidin-1-yl)cyclohexyl]methyl}amino)-3-(cyanomethyl)azetidine-1-carboxylate]	0.19	0.75	> 1	> 1	–	–	–	–
Fc1ccc2c(c1)CCN2C[C@H]1CC[C@H](c2nnn3cnc4[nH]ccc4c23)CC1 [compound 179, 1-[trans-4-((5-fluoroindolin-1-yl)methyl)cyclohexyl]-7H-pyrrolo[3,2-e][1,2,3]triazolo[1,5-c]pyrimidine]	–	–	–	–	0.028	0.094	> 1	> 1
N#CC1CN(C(=O)[C@H]2CC[C@H](c3nnn4cnc5[nH]ccc5c34)CC2)C1 [compound 363, 1-[trans-4-(7H-pyrrolo[3,2-e][1,2,3]triazolo[1,5-c]pyrimidin-1-yl)cyclohexanecarbonyl]azetidine-3-carbonitrile]	0.044	0.29	> 1	> 1	–	–	–	–
Fc1cc(CN2CCC(c3nnn4cnc5[nH]ccc5c34)CC2)ccc1Cl [compound 159]	–	–	–	–	0.0016	0.011	0.08	0.3
O=C(N[C@H]1CCN(C[C@H]2CC[C@H](c3nnn4cnc5[nH]ccc5c34)CC2)C1)C(F)(F)F [compound 321, N-((S)-1-{[trans-4-(7H-pyrrolo[3,2-e][1,2,3]triazolo[1,5-c]pyrimidin-1-yl)cyclohexyl]methyl}pyrrolidin-3-yl)-2,2,2-trifluoroacetamide]	0.024	0.21	> 1	> 1	–	–	–	–
c1cc2c(ncn3nnc([C@H]4CC[C@@H](NN5CCOCC5)CC4)c23)[nH]1 [139a]	–	–	–	–	0.26	0.4	0.43	> 1
CC(C)(C)OC(=O)NCCN1CCC(c2nnn3cnc4[nH]ccc4c23)CC1 [compound 171, tert-butyl {2-[4-(7H-pyrrolo[3,2-e][1,2,3]triazolo[1,5-c]pyrimidin-1-yl)piperidin-1-yl]ethyl}carbamate]	–	–	–	–	0.1	0.94	> 1	> 1
CC(C)(C)OC(=O)N[C@H]1CCN(C[C@H]2CC[C@H](c3nnn4cnc5[nH]ccc5c34)CC2)C1 [compound 307, tert-butyl ((S)-1-{[trans-4-(7H-pyrrolo[3,2-e][1,2,3]triazolo[1,5-c]pyrimidin-1-yl)cyclohexyl]methyl}pyrrolidin-3-yl)carbamate]	0.0066	0.26	> 1	> 1	–	–	–	–
N#CCNC(=O)[C@H]1CC[C@H](c2nnn3cnc4[nH]ccc4c23)CC1 [compound 355, trans-N-(cyanomethyl)-4-(7H-pyrrolo[3,2-e][1,2,3]triazolo[1,5-c]pyrimidin-1-yl)cyclohexanecarboxamide]	0.0042	0.033	> 1	0.15	–	–	–	–
CN(C)[C@@H]1CCN(C[C@H]2CC[C@H](c3nnn4cnc5[nH]ccc5c34)CC2)C1 [compound 340, (R)-1-{[trans-4-(7H-pyrrolo[3,2-e][1,2,3]triazolo[1,5-c]pyrimidin-1-yl)cyclohexyl]methyl}-N,N-dimethylpyrrolidin-3-amine]	0.021	0.23	> 1	> 1	–	–	–	–
Clc1ccc(CN2CCC(c3nnn4cnc5[nH]ccc5c34)CC2)c(Cl)n1 [compound 231, 1-{1-[(2,6-dichloropyridin-3-yl)methyl]piperidin-4-yl}-7H-pyrrolo[3,2-e][1,2,3]triazolo[1,5-c]pyrimidine]	0.0043	0.023	0.23	0.61	–	–	–	–

Further lines, results first:

IC50 (JAK1) [µM]	IC50 (JAK2) [µM]	IC50 (JAK3) [µM]	IC50 (Tyk2) [µM]	IC50 (JAK1; Table^a 154) [µM]	IC50 (JAK2; Table^a 154) [µM]	IC50 (JAK3; Table^a 154) [µM]	IC50 (Tyk2; Table^a 154) [µM]	SMILES
0.00033	0.0017	0.048	0.0092	–	–	–	–	[N-]=[N+]=NC[C@H]1CC[C@H](c2nnn3cnc4[nH]ccc4c23)CC1 [compound 369, 1-[trans-4-(Azidomethyl)cyclohexyl]-7H-pyrrolo[3,2-e][1,2,3]triazolo[1,5-c]pyrimidine]
–	–	–	–	0.0057	0.072	0.61	0.099	c1ccc(CCNC[C@H]2CC[C@H](c3nnn4cnc5[nH]ccc5c34)CC2)cc1 [compound 174, N-{[trans-4-(7H-pyrrolo[3,2-e][1,2,3]triazolo[1,5-c]pyrimidin-1-yl)cyclohexyl]methyl}-2-phenylethanamine]
0.01	0.063	0.33	0.44	–	–	–	–	OC(CNC[C@H]1CC[C@H](c2nnn3cnc4[nH]ccc4c23)CC1)C(F)(F)F (stereo partly drawn) [compound 343, 3-({[trans-4-(7H-pyrrolo[3,2-e][1,2,3]triazolo[1,5-c]pyrimidin-1-yl)cyclohexyl]methyl}amino)-1,1,1-trifluoropropan-2-ol]
0.0047	0.045	0.59	0.91	–	–	–	–	N#Cc1ccc(NC[C@H]2CC[C@H](c3nnn4cnc5[nH]ccc5c34)CC2)cc1C#N [compound 262, 4-({[trans-4-(7H-pyrrolo[3,2-e][1,2,3]triazolo[1,5-c]pyrimidin-1-yl)cyclohexyl]methyl}amino)phthalonitrile]
0.024	0.072	0.96	> 1	–	–	–	–	N#C[C@@H]1CCN(C[C@H]2CC[C@H](c3nnn4cnc5[nH]ccc5c34)CC2)C1 [compound 301, (R)-1-{[trans-4-(7H-pyrrolo[3,2-e][1,2,3]triazolo[1,5-c]pyrimidin-1-yl)cyclohexyl]methyl}pyrrolidine-3-carbonitrile]
0.0078	0.026	0.38	0.42	–	–	–	–	O=S(=O)(C[C@H]1CC[C@H](c2nnn3cnc4[nH]ccc4c23)CC1)NC1CC1 [compound 417, 1-[trans-4-(7H-Pyrrolo[3,2-e][1,2,3]triazolo[1,5-c]pyrimidin-1-yl)cyclohexyl]-N-cyclopropylmethanesulfonamide]
0.012	0.1	0.75	0.0048	–	–	–	–	COc1ccc(CNC[C@H]2CC[C@H](c3nnn4cnc5[nH]ccc5c34)CC2)cc1 [compound 270, 1-[trans-4-(7H-pyrrolo[3,2-e][1,2,3]triazolo[1,5-c]pyrimidin-1-yl)cyclohexyl]-N-(4-methoxybenzyl)methanamine]
0.0043	0.015	0.17	0.36	–	–	–	–	O=C(CC(F)(F)F)N(CC(F)(F)F)C[C@H]1CC[C@H](c2nnn3cnc4[nH]ccc4c23)CC1 [compound 411, N-{[trans-4-(7H-Pyrrolo[3,2-e][1,2,3]triazolo[1,5-c]pyrimidin-1-yl)cyclohexyl]methyl}-3,3,3-trifluoro-N-(2,2,2-trifluoroethyl)propanamide]
–	–	–	–	0.0035	0.042	0.58	0.087	C[C@H](O)CNC[C@H]1CC[C@H](c2nnn3cnc4[nH]ccc4c23)CC1 [compound 184, (S)-1-({[trans-4-(7H-pyrrolo[3,2-e][1,2,3]triazolo[1,5-c]pyrimidin-1-yl)cyclohexyl]methyl}amino)propan-2-ol]
0.00079	0.0046	0.055	0.11	–	–	–	–	Brc1ccc(CN2CCC(c3nnn4cnc5[nH]ccc5c34)CC2)s1 [compound 238, 1-{1-[(5-bromothiophen-2-yl)methyl]piperidin-4-yl}-7H-pyrrolo[3,2-e][1,2,3]triazolo[1,5-c]pyrimidine]
–	–	–	–	0.0025	0.037	0.4	0.065	Clc1ccc(CCN[C@H]2CC[C@H](c3nnn4cnc5[nH]ccc5c34)CC2)cc1 [198b, trans-N-(4-chlorophenethyl)-4-(7H-pyrrolo[3,2-e][1,2,3]triazolo[1,5-c]pyrimidin-1-yl)cyclohexanamine]
0.004	0.071	0.41	0.2	–	–	–	–	O[C@H]1Cc2ccccc2[C@H]1NC1CCC(c2nnn3cnc4[nH]ccc4c23)CC1 (mixture of isomers) [compound 378, (1R,2S)-1-{[4-(7H-pyrrolo[3,2-e][1,2,3]triazolo[1,5-c]pyrimidin-1-yl)cyclohexyl]amino}-2,3-dihydro-1H-inden-2-ol]
–	–	–	–	0.0032	0.042	0.52	0.65	CS(=O)(=O)c1ccc(CN2CCC(c3nnn4cnc5[nH]ccc5c34)CC2)cc1 [compound 156]

Reference: US9216999B2, “Substituted pyrrolo[2,3-h][1,6]naphthyridines and compositions thereof as JAK inhibitors” (priority 2011, dated 2015)
